What was measured:
depression = settings: in vivo; cited from earlier work
human 5-HT1A receptor [1] = target: T1, human 5-HT1A receptor (Homo sapiens, UniProt P08908); assay: Displacement of [3H] 8-OHDPAT from the 5-HT1A receptor in transfected CHO cells; format: binding
T1 construct: expressed in transfected cells; host or cells: CHO cells (stably transfected)
T1 sequence (P08908 1-422): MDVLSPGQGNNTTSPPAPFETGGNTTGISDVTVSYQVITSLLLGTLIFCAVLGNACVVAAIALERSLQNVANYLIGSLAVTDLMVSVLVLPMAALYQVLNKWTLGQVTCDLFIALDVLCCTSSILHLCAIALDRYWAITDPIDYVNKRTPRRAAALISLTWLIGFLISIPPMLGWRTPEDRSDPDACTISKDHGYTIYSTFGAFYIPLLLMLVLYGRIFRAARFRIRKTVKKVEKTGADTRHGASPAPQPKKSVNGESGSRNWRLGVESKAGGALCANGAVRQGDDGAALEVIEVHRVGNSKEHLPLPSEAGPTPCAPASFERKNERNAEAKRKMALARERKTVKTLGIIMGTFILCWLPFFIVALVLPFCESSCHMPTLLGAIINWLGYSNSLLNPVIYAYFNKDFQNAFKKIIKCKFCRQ
Description: Affinity for the serotonin 5-HT1A receptor was established by assaying the test compound's ability to displace [^3H] 8-OHDPAT from its binding site on the receptor complex in CHO cells stably transfected with the human 5-HT1A receptor following the procedure described by J. Dunlop, Y. Zhang, D. Smith and L. Schechter (Eur. J. Pharmacol., submitted; variation of a procedure described by J. Zgombick et al., Naunyn-Schmiedeberg's Arch. Pharmacol., 354, 226-236 (1996)).

human 5-HT1A receptor [2] = target: T1, human 5-HT1A receptor; assay: Agonist activity: inhibition of forskolin-stimulated cAMP accumulation in transfected CHO cells; format: cell-based; settings: CHO cells with human 5-HT1A receptor
Description: (§1) Methods, 40, 47-55 (1998); variation of a procedure described by J. Zgombick et al., Naunyn-Schmiedeberg's Arch. Pharmacol., 354, 226-236 (1996)].

human 5-HT1A receptor [3] = target: T1, human 5-HT1A receptor; assay: Antagonist activity: antagonism of 8-OHDPAT inhibition of forskolin-stimulated cAMP accumulation in transfected CHO cells; format: cell-based; settings: CHO cells with human 5-HT1A receptor
Description: as §1

[4] = tested on: motion sickness and xylazine- and cis-platinin-induced vomiting; settings: cited from earlier work
LTP = settings: cited from earlier work
[5] = tested on: impairment of spatial learning caused by intrahippocampal scopolamine; settings: cited from earlier work
[6] = tested on: cognitive deficits induced by fornix lesions; settings: marmosets; cited from earlier work
antidepressant response = settings: clinical trials; co-administration with the SSRI's paroxetine and fluoxetine; cited from earlier work
PC3 cell line = settings: athymic nude mice; cited from earlier work
[7] = tested on: human prostate tumor cell lines PC3, DU-145 and LNCaP; settings: PC3, DU-145 and LNCaP in vitro; cited from earlier work
[8] = displacement of [3H] 8-OHDPAT, CHO cells stably transfected with the human 5-HT1A receptor, read-out: 5-HT1A Affinity (IC50)

| Compound | IC50 (human 5-HT1A receptor [1]; [8]) | IC50 (human 5-HT1A receptor [3]) | also measured |
| --- | --- | --- | --- |
| O=C1CC2(CCCC2)CC(=O)N1CCCCN1CCN(c2ncccn2)CC1 [Buspirone, buspirone] | – | – | antidepressant activity (depression): weak antidepressant activity |
| COc1ccccc1N1CCN(C[C@@H](CC2CCCCC2)NC(=O)C2CCCCC2)CC1 [Example 1, Cyclohexanecarboxylic Acid {(1R)-1-Cyclohexylmethyl-2-[4-(2-methoxyphenyl)-piperazin-1-yl]-ethyl}-amide] | 0.57 nM | – | EC50 (human 5-HT1A receptor [2]): 0.5 nM |
| COc1ccccc1N1CCN(C[C@@H](CC2CCCCC2)NC(=O)C2(C)CCCCC2)CC1 [Example 2, 1-Methyl-cyclohexanecarboxylic Acid of {(1R)-1-Cyclohexylmethyl-2-[4-(2-methoxyphenyl)-piperazin-1-yl]-ethyl}-amide] | 1.23 nM | 14.6 nM | – |
| COc1ccccc1N1CCN(C[C@@H](CC2CCCCC2)N(C)C(=O)C2CCCCC2)CC1 [Example 3, Cyclohexanecarboxylic Acid {(1R)-1-Cyclohexylmethyl-2-[4-(2-methoxyphenyl)-piperazin-1-yl]-ethyl}-methyl-amide] | 1.46 nM | 4 nM | – |
| COc1ccccc1N1CCN(C[C@@H](CC2CCCCC2)N(C)C(=O)C2(C)CCCCC2)CC1 [Example 4, 1-Methyl-cyclohexanecarboxylic Acid {(1R)-1-Cyclohexylmethyl-2-[4-(2-methoxyphenyl)-piperazin-1-yl]-ethyl}-methyl-amide] | 2.82 nM | 10.2 nM | – |
| CN(C(=O)C1CCCCC1)[C@H](CC1CCCCC1)CN1CCN(c2cccc3c2OCCO3)CC1 [Example 5] | 2.37 nM | 4.6 nM | – |
| CN(C(=O)C1(C)CCCCC1)[C@H](CC1CCCCC1)CN1CCN(c2cccc3c2OCCO3)CC1 [Example 6, 1-Methyl-cyclohexanecarboxylic Acid {(1R)-1-Cyclohexylmethyl-2-[4-(2,3-dihydro-benzo[1,4]dioxin-5-yl)-piperazin-1-yl]-ethyl}-methyl-amide] | 6.92 nM | 7.3 nM | – |
| COc1ccccc1C1=CCN(C[C@@H](CC2CCCCC2)NC(=O)C2(C)CCCCC2)CC1 [Example 21, 1-Methyl-cyclohexanecarboxylic Acid {(1R)-1-Cyclohexylmethyl-2-[4-(2-methoxyphenyl)-3,6-dihydro-2H-pyridin-1-yl]-ethyl}-amide] | – | 45.5 nM | IC50 (human 5-HT1A receptor [1]): 2.75 nM |
| O=C(NCCN1CCN(c2cccc3c2OC[C@H](CO)O3)CC1)c1ccc(F)cc1 [Flesinoxan] | – | – | antiemetic activity in animal models [4]: particularly active |
| COc1ccccc1N1CCN(CCCCN2C(=O)c3ccccc3C2=O)CC1 [NAN-190] | – | – | effect on LTP (LTP): augment LTP |
| COc1ccccc1N1CCN(CC(C(=O)NC(C)(C)C)c2ccccc2)CC1 (centres unmarked) [WAY-100135] | – | – | effect on impairment of spatial learning [5]: prevented the impairment of spatial learning |
| COc1ccccc1N1CCN(CCN(C(=O)C2CCCCC2)c2ccccn2)CC1 [WAY-100635] | – | – | effect on cognitive deficits induced by fornix lesions [6]: reversed the cognitive deficits |
| CC(C)NCC(O)COc1cccc2[nH]ccc12 (centres unmarked) [pindolol] | – | – | median time needed to achieve a sustained antidepressant response (antidepressant response): significantly reduced the median time |
| pindobind | – | – | growth of PC3 cell line in vivo (PC3 cell line): inhibited the growth; antineoplastic activity in vitro [7]: antineoplastic activity |

Continued, in another order:

| IC50 (human 5-HT1A receptor [1]; [8]) | IC50 (human 5-HT1A receptor [3]) | Compound | also measured |
| --- | --- | --- | --- |
| 8.84 nM | 10.5 nM | CN(C(=O)C1CCCCC1)[C@H](CC1CCCCC1)CN1CCN(c2cccc3[nH]ccc23)CC1 [Example 7, Cyclohexanecarboxylic Acid {(1R)-1-Cyclohexylmethyl-2-[4-(1H-indol-4-yl)-piperazin-1-yl]-ethyl}-methyl-amide] | – |
| 32.7 nM | – | CN(C(=O)C1(C)CCCCC1)[C@H](CC1CCCCC1)CN1CCN(c2cccc3[nH]ccc23)CC1 [Example 8] | – |
| 1.49 nM | 17.3 nM | COc1ccccc1N1CCN(C[C@@H](CC2CCCCC2)NC=O)CC1 [Example 9, N-{(1R)-1-Cyclohexylmethyl-2-[4-(2-methoxyphenyl)-piperazin-1-yl]-ethyl}-formamide] | – |
| 0.71 nM | – | O=C(N[C@H](CC1CCCCC1)CN1CCN(c2ncccn2)CC1)C1CCCCC1 [Example 10, Cyclohexanecarboxylic Acid {(1R)-1-Cyclohexylmethyl-2-[4-(pyrimidin-2-yl)-piperazin-1-yl]-ethyl}-amide] | EC50 (human 5-HT1A receptor [2]): 1.3 nM |
| 2.4 nM | – | O=C(N[C@H](CC1CCCCC1)CN1CCN(c2ncccn2)CC1)C1CCC1 [Example 11, Cyclobutane Carboxylic Acid {(1R)-1-Cyclohexylmethyl-2-[4-(pyrimidin-2-yl)-piperazin-1-yl]-ethyl}-amide] | EC50 (human 5-HT1A receptor [2]): 21.7 nM |
| 4.14 nM | – | COc1cccc(N2CCN(C[C@H](CC3CCCCC3)NC(=O)C3CCCCC3)CC2)n1 [Example 12, Cyclohexane Carboxylic Acid {(1S)-1-Cyclohexylmethyl-2-[4-(6methoxypyridin-2-yl)-piperazin-1-yl]-ethyl}-amide] | EC50 (human 5-HT1A receptor [2]): 14.8 nM |
| 2.96 nM | – | O=C(N[C@H](CC1CCCCC1)CN1CCN(c2nc3ccccc3s2)CC1)C1CCCCC1 [Example 13, Cyclohexanecarboxylic Acid {(1R)-1-Cyclohexylmethyl-2-[4-(benzothiazol-2-yl)-piperazin-1-yl]-ethyl}-amide] | EC50 (human 5-HT1A receptor [2]): 4.8 nM |
| 1.69 nM | – | O=C(N[C@H](CC1CCCCC1)CN1CCN(c2nccc3ccccc23)CC1)C1CCCCC1 [Example 14, Cyclohexanecarboxylic Acid {(1R)-1-Cyclohexylmethyl-2-[4-(isoquinolin-1-yl)-piperazin-1-yl]-ethyl}-amide] | – |
| 1.08 nM | – | COc1ccccc1C1CCN(C[C@@H](CC2CCCCC2)NC(=O)C2CCCCC2)CC1 [Example 15, Cyclohexanecarboxylic Acid {(1R)-1-Cyclohexylmethyl-2-[4-(2-methoxyphenyl)-piperidin-1-yl]-ethyl}-amide] | EC50 (human 5-HT1A receptor [2]): 3.9 nM |
| 5.97 nM | 46 nM | COc1ccccc1C1CCN(C[C@@H](CC2CCCCC2)NC(=O)C2(C)CCCCC2)CC1 [Example 16, 1-Methyl-cyclohexanecarboxylic acid {(1R)-1-cyclohexylmethyl-2-[4-(2-methoxyphenyl)-piperidin-1-yl]-ethyl}-amide] | – |
| 1.69 nM | 91.5 nM | COc1ccccc1C1CCN(C[C@@H](CC2CCCCC2)N(C)C(=O)C2CCCCC2)CC1 [Example 17, Cyclohexanecarboxylic Acid {(1R)-1-Cyclohexylmethyl-2-[4-(2-methoxyphenyl)-piperidin-1-yl]-ethyl}-methyl-amide] | – |
| 5.33 nM | 97.5 nM | COc1ccccc1C1CCN(C[C@@H](CC2CCCCC2)N(C)C(=O)C2(C)CCCCC2)CC1 [Example 18, 1-Methyl-cyclohexanecarboxylic Acid {(1R)-1-Cyclohexylmethyl-2-[4-(2-methoxypheniyl)-piperidin-1-yl]-ethyl}-methyl-amide] | – |
| 2.19 nM | 40 nM | COc1ccccc1C1CCN(C[C@@H](CC2CCCCC2)NC(=O)C(C)(C)C)CC1 [Example 19, N-{(1R)-1-Cyclohexylmethyl-2-[4-(2-methoxyphenyl)-piperidin-1-yl]-ethyl}-2,2-dimethyl-propionamide] | – |
| 5 nM | – | COc1ccccc1C1CCN(C[C@@H](CC2CCCCC2)N(C)C(=O)C(C)(C)C)CC1 [Example 20, N-{(1R)-1-Cyclohexylmethyl-2-[4-(2-methoxyphenyl)-piperidin-1-yl]-ethyl}-2,2,N-trimethyl-propionamide] | – |
